{"source": "patent US3970648A", "about": "“2-[2-(5-Nitro-2-furyl)vinyl]-4-(anilino)quinazolines” (Diamond Shamrock Corporation, priority 1974, dated 1976)", "assay_type_in_all_cases": "cell-based", "key": {"Escherichia coli": {"tested_on": "Escherichia coli", "test": "Bactericide test, Escherichia coli (agar streak plate)", "excerpt": "Test formulations were examined for bactericidal and/or bacteriostatic activity against the test organisms shown in Tables A and B. These organisms were chosen as being representative of commercially important pathogens affecting animal agriculture. The antibiotic chlortetracycline was chosen as a positive control, since it has a broad spectrum of activity against a large number of organisms, and its activity can be used for comparative purposes.\nBasic test formulations of the product of Examples I, II, III, and of chlortetracycline were prepared by dissolving 16 mg (0.016 g) in 2.0 ml of stock emulsifier solution (0.25% Triton X-155 in acetone by volume) and making each solution up to 50 ml with deionized water. The concentration of the test compound in the basic formulation was 320 ppm. Lower concentrations of the test compound were obtained by diluting the basic formulation with a 4% solution of the stock emulsifier in deionized water so that each dilution in the series differed only in test compound content.\nNutrient-tryptic soy agar (NTA) consisting of 2.0% Difco Bactoagar 0.8% nutrient broth (Difco), and 0.5% tryptic soy broth (Difco) was prepared and sterilized by autoclaving. A 2 ml aliquot of each test formulation was added to 8 ml of molten NTA. This mixture was then plated in a sterile polystyrene petri dish (100 × 15 mm). After the agar was set, suspensions of each of the test organisms were simultaneously streaked onto the surface of the agar. The inoculated plates were incubated for 48 hr at 28°C. The inhibition of growth of each organism was rated by visual comparison with the organism developing on non-treated agar. Growth inhibition reported as per cent control was rated in three categories as follows: 0% control, growth equivalent to that on non-treated agar; 50% control, sparse development and separated colonies; 100% control, no visible growth or development of colonies.\nTest formulations of the product of Example IV were examined for bactericidal and/or bacteriostatic activity against the test organisms shown in Table B using the Bactericide Test described in Example V. The inhibition of organism growth with each diluted test formulation was rated visually by comparison with the organism developing on a non-treated control agar plate. Growth inhibition reported as per cent control was rated in three categories as follows: 0% control, growth equivalent to that on non-treated agar; 50% control is sparse development and separated colonies; and 100% control, development of individual colonies was not apparent."}, "Staphylococcus aureus": {"tested_on": "Staphylococcus aureus", "test": "Bactericide test, Staphylococcus aureus (agar streak plate)", "details": "Staphylococcus aureus", "outline": "(§1)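 Compounds in Triton X-155/acetone emulsifier (basic formulation 320 ppm, diluted serially) were mixed 2:8 into molten nutrient-tryptic soy agar, then organisms streaked on the set plates. After 48 hr at 28°C, growth was scored visually against untreated agar as 0%, 50% (sparse, separated colonies) or 100% control (no visible colonies).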"}, "Streptococcus faecalis": {"tested_on": "Streptococcus faecalis", "test": "Bactericide test, Streptococcus faecalis (agar streak plate)", "details": "Enterococcus faecalis", "outline": "as §1"}, "Salmonella cholerasuis": {"tested_on": "Salmonella cholerasuis", "test": "Bactericide test, Salmonella cholerasuis (agar streak plate)", "details": "Salmonella", "outline": "as §1"}, "Salmonella gallinarum": {"tested_on": "Salmonella gallinarum", "test": "Bactericide test, Salmonella gallinarum (agar streak plate)", "details": "Salmonella enterica, GALLINARUM", "outline": "as §1"}, "[1]": {"tested_on": "Erysipelothrix rhusiopathiae", "test": "Bactericide test, Erysipelothrix rhusiopathiae (agar streak plate)", "details": "Erysipelothrix rhusiopathiae", "outline": "(§2)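 Compounds were formulated with Triton X-155/acetone emulsifier (basic formulation 320 ppm, serially diluted) and mixed 2:8 into molten nutrient-tryptic soy agar. Organisms were streaked onto the plates and incubated 48 hr at 28°C. Growth inhibition was scored visually against untreated agar as 0, 50 or 100% control.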"}, "[2]": {"tested_on": "Bordetella bronchiseptica", "test": "Bactericide test, Bordetella bronchiseptica (agar streak plate)", "details": "Bordetella bronchiseptica", "outline": "as §2"}, "Salmonella typhimurium": {"tested_on": "Salmonella typhimurium", "test": "Bactericide test, Salmonella typhimurium (agar streak plate)", "details": "Salmonella enterica, TYPHIMURIUM", "outline": "as §2"}, "Streptococcus agalactiae": {"tested_on": "Streptococcus agalactiae", "test": "Bactericide test, Streptococcus agalactiae (agar streak plate)", "details": "Streptococcus agalactiae", "outline": "as §2"}, "Streptococcus group E": {"tested_on": "Streptococcus group E", "test": "Bactericide test, Streptococcus group E (agar streak plate)", "outline": "as §2"}, "Vibrio coli": {"tested_on": "Vibrio coli", "test": "Bactericide test, Vibrio coli (agar streak plate)", "details": "Campylobacter coli", "outline": "as §2"}}}
{"molecule": "CN(C)[C@@H]1C(O)=C(C(N)=O)C(=O)[C@@]2(O)C(O)=C3C(=O)c4c(O)ccc(Cl)c4[C@@](C)(O)[C@H]3C[C@@H]12", "note": "[Chlortetracycline, reference compound]", "values": [{"measurement": "inhibition at 1 ppm", "setting": "Escherichia coli", "result": 0, "unit": "%"}, {"measurement": "inhibition at 4 ppm", "setting": "Escherichia coli", "result": 0, "unit": "%"}, {"measurement": "inhibition at 16 ppm", "setting": "Escherichia coli", "result": 100, "unit": "%"}, {"measurement": "inhibition at 64 ppm", "setting": "Escherichia coli", "result": 100, "unit": "%"}, {"measurement": "inhibition at 1 ppm", "setting": "Staphylococcus aureus", "result": 0, "unit": "%"}, {"measurement": "inhibition at 4 ppm", "setting": "Staphylococcus aureus", "result": 0, "unit": "%"}, {"measurement": "inhibition at 16 ppm", "setting": "Staphylococcus aureus", "result": 100, "unit": "%"}, {"measurement": "inhibition at 64 ppm", "setting": "Staphylococcus aureus", "result": 100, "unit": "%"}, {"measurement": "inhibition at 1 ppm", "setting": "Streptococcus faecalis", "result": 100, "unit": "%"}, {"measurement": "inhibition at 4 ppm", "setting": "Streptococcus faecalis", "result": 100, "unit": "%"}, {"measurement": "inhibition at 16 ppm", "setting": "Streptococcus faecalis", "result": 100, "unit": "%"}, {"measurement": "inhibition at 64 ppm", "setting": "Streptococcus faecalis", "result": 100, "unit": "%"}, {"measurement": "inhibition at 1 ppm", "setting": "Salmonella cholerasuis", "result": 0, "unit": "%"}, {"measurement": "inhibition at 4 ppm", "setting": "Salmonella cholerasuis", "result": 0, "unit": "%"}, {"measurement": "inhibition at 16 ppm", "setting": "Salmonella cholerasuis", "result": 100, "unit": "%"}, {"measurement": "inhibition at 64 ppm", "setting": "Salmonella cholerasuis", "result": 100, "unit": "%"}, {"measurement": "inhibition at 1 ppm", "setting": "Salmonella gallinarum; 1 ppm", "result": 0, "unit": "%"}, {"measurement": "inhibition at 4 ppm", "setting": "Salmonella gallinarum; 4 ppm", "result": 0, "unit": "%"}, {"measurement": "inhibition at 16 ppm", "setting": "Salmonella gallinarum; 16 ppm", "result": 100, "unit": "%"}, {"measurement": "inhibition at 64 ppm", "setting": "Salmonella gallinarum; 64 ppm", "result": 100, "unit": "%"}, {"measurement": "inhibition at 1 ppm", "setting": "[1]; 1 ppm", "result": 0, "unit": "%"}, {"measurement": "inhibition at 4 ppm", "setting": "[1]; 4 ppm", "result": 10, "unit": "%"}, {"measurement": "inhibition at 16 ppm", "setting": "[1]; 16 ppm", "result": 100, "unit": "%"}, {"measurement": "inhibition at 64 ppm", "setting": "[1]; 64 ppm", "result": 100, "unit": "%"}, {"measurement": "inhibition at 1 ppm", "setting": "[2]", "result": 0, "unit": "%"}, {"measurement": "inhibition at 4 ppm", "setting": "[2]", "result": 0, "unit": "%"}, {"measurement": "inhibition at 16 ppm", "setting": "[2]", "result": 0, "unit": "%"}, {"measurement": "inhibition at 64 ppm", "setting": "[2]", "result": 100, "unit": "%"}, {"measurement": "inhibition at 1 ppm", "setting": "Salmonella typhimurium", "result": 0, "unit": "%"}, {"measurement": "inhibition at 4 ppm", "setting": "Salmonella typhimurium", "result": 0, "unit": "%"}, {"measurement": "inhibition at 16 ppm", "setting": "Salmonella typhimurium", "result": 0, "unit": "%"}, {"measurement": "inhibition at 64 ppm", "setting": "Salmonella typhimurium", "result": 0, "unit": "%"}, {"measurement": "inhibition at 1 ppm", "setting": "Streptococcus agalactiae", "result": 0, "unit": "%"}, {"measurement": "inhibition at 4 ppm", "setting": "Streptococcus agalactiae", "result": 100, "unit": "%"}, {"measurement": "inhibition at 16 ppm", "setting": "Streptococcus agalactiae", "result": 100, "unit": "%"}, {"measurement": "inhibition at 64 ppm", "setting": "Streptococcus agalactiae", "result": 100, "unit": "%"}, {"measurement": "inhibition at 1 ppm", "setting": "Streptococcus group E", "result": 0, "unit": "%"}, {"measurement": "inhibition at 4 ppm", "setting": "Streptococcus group E", "result": 0, "unit": "%"}, {"measurement": "inhibition at 16 ppm", "setting": "Streptococcus group E", "result": 100, "unit": "%"}, {"measurement": "inhibition at 64 ppm", "setting": "Streptococcus group E", "result": 100, "unit": "%"}, {"measurement": "inhibition at 1 ppm", "setting": "Vibrio coli; 1 ppm", "result": 0, "unit": "%"}, {"measurement": "inhibition at 4 ppm", "setting": "Vibrio coli; 4 ppm", "result": 100, "unit": "%"}, {"measurement": "inhibition at 16 ppm", "setting": "Vibrio coli; 16 ppm", "result": 100, "unit": "%"}, {"measurement": "inhibition at 64 ppm", "setting": "Vibrio coli; 64 ppm", "result": 100, "unit": "%"}]}
